In ChEMBL document CHEMBL1201862, “PubChem BioAssay data set” (2004):
The source made the active and inactive calls.

Tests used:
[1] = target: T1, Hexokinase HKDC1 (Homo sapiens, UniProt Q2TB90); assay: HKDC1 hexokinase inhibitors, SAR follow-up, biochemical, set 2 (AID 588355); format: functional
T1 sequence (Q2TB90 whole entry): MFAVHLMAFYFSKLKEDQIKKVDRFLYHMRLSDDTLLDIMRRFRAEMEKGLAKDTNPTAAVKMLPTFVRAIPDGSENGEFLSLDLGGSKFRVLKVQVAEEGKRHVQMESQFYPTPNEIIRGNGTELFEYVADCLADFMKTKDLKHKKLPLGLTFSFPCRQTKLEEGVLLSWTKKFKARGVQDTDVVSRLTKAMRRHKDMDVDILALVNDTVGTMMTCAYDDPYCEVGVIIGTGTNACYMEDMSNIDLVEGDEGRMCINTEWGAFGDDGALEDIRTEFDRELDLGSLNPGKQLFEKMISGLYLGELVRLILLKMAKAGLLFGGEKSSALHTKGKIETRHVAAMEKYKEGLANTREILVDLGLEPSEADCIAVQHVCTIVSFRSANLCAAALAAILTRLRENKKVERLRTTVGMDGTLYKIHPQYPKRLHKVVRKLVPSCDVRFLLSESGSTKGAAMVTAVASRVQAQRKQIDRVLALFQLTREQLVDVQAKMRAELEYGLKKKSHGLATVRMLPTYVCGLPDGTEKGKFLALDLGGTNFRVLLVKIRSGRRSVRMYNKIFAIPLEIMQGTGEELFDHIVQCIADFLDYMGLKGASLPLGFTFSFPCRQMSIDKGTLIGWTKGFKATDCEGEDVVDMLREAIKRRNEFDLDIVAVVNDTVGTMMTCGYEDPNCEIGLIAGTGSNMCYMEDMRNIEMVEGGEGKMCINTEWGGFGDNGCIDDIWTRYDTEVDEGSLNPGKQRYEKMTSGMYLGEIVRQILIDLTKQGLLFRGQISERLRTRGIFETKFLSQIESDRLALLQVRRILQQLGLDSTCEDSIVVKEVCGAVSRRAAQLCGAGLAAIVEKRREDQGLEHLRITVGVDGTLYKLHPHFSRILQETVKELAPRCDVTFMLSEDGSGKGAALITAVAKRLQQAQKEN

[2] = target: T2, Hexokinase-1 (Homo sapiens, UniProt P19367); assay: HK1 enzyme inhibition by HKDC1 hits, SAR follow-up, selectivity assay for HKDC1 inhibitor project, biochemical, set 2, resazurin fluorescence coupled readout (AID 588356); format: functional
T2 sequence (P19367 whole entry): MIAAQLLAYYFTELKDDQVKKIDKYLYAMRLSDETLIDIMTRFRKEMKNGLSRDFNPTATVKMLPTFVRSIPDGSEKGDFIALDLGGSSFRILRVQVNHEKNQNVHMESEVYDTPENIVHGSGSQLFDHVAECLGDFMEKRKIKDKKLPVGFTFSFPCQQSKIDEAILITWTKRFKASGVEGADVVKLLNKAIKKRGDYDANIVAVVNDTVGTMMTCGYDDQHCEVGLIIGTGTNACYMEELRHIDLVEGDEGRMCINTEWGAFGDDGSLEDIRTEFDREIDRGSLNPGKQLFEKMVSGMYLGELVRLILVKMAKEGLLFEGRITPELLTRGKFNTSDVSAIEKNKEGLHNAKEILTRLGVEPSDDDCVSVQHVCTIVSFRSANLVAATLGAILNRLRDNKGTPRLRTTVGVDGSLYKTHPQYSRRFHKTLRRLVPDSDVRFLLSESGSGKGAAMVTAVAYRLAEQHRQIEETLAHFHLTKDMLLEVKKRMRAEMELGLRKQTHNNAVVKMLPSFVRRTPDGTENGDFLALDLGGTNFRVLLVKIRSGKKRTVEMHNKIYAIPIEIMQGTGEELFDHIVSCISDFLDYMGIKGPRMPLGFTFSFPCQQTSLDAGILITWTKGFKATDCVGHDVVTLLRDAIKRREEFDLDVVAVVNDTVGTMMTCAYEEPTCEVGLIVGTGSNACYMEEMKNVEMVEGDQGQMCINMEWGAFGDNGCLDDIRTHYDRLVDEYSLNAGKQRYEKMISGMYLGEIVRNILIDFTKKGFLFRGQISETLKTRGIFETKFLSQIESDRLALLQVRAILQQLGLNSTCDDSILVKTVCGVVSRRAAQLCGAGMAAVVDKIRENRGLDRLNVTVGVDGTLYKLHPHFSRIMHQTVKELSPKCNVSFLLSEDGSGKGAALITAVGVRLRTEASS

[3] = target: Phospholipase D1 (Homo sapiens, UniProt Q13393); assay: PLD1 purified enzyme concentration response. [Related pubchem assays (depositor defined):AID588854]; format: functional
[4] = target: Phospholipase D2 (Homo sapiens, UniProt O14939); assay: PLD2 purified enzyme concentration response. [Related pubchem assays (depositor defined):AID588854]; format: functional
[5] = target: T3, Bcl-2-related protein A1 (Mus musculus, UniProt Q07440); format: functional;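 further: confirmatory dose–response counterscreen on Bfl-1, used to check hits from a UBC13 polyubiquitin inhibitor campaign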
T3 sequence (Q07440 whole entry): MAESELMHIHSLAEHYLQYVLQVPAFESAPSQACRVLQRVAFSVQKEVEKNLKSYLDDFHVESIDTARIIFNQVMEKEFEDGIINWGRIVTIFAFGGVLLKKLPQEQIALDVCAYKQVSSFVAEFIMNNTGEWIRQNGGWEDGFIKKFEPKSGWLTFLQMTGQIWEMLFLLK

[6] = nonselective inhibitors of cellular cAMP signaling, dose response, counter-screen for MC4R biased antagonist project, cell-based, TR-FRET cAMP detection (AID 602305); format: functional;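 further: U2OS cells stimulated with forskolin near its EC80 as the cAMP inducer; potency is for inhibition of forskolin-stimulated cAMP signaling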
[7] = target: T4, Ubiquitin-conjugating enzyme E2 N (Homo sapiens, UniProt P61088); format: functional;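 further: Dose-response confirmation in a TR-FRET assay detecting UBC13-driven polyubiquitin chain formation, inhibition measured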
T4 sequence (P61088 whole entry): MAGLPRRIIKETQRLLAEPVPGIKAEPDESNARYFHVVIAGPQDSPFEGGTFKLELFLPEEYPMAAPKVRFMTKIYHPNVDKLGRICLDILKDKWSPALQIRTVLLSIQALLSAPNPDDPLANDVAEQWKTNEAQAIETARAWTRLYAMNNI

[8] = target: Melanocortin receptor 4 (Homo sapiens, UniProt P32245); assay: MC4R antagonist potency on cAMP, dose response, cell-based, TR-FRET, biased antagonists (AID 602298); format: functional;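 further: antagonist potency against agonist-stimulated cAMP production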
[9] = target: Type-1 angiotensin II receptor (Homo sapiens, UniProt P30556); assay: AT1 receptor antagonists, dose response, selectivity assay for APJ receptor antagonist project, cell-based, uHTS hits (AID 463214); format: functional;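 further: antagonist potency against angiotensin II stimulated AT1 response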
Type-1 angiotensin II receptor, sequence (P30556 whole entry): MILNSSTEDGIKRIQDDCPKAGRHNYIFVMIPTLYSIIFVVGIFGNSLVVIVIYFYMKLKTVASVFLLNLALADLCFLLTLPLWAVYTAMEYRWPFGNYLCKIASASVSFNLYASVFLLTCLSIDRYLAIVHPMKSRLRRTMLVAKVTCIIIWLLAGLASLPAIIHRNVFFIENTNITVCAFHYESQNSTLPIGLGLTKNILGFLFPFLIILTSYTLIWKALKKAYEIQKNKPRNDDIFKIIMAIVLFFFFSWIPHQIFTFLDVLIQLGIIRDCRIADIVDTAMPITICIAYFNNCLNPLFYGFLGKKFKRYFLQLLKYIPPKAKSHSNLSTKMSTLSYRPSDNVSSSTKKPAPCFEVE

[10] = target: T5, DNA repair protein RAD52 homolog (Homo sapiens, UniProt P43351); format: functional, biochemical
T5 sequence (P43351 whole entry): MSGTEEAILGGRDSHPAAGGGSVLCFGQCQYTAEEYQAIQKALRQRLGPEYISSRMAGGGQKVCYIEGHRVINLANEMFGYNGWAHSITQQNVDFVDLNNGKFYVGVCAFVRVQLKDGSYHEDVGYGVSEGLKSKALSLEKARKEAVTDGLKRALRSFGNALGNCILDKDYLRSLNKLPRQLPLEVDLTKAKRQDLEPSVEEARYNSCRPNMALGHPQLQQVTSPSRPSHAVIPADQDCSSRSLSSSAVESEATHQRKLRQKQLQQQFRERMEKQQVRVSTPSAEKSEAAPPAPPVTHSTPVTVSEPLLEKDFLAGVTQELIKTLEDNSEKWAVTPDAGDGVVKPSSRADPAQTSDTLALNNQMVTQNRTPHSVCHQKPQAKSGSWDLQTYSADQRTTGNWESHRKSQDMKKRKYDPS

[11] = target: Beta-galactosidase (Escherichia coli, UniProt Q8VNN2); assay: PubChem AID 485352; format: functional
Beta-galactosidase, sequence (Q8VNN2 whole entry, the tested form may be a part): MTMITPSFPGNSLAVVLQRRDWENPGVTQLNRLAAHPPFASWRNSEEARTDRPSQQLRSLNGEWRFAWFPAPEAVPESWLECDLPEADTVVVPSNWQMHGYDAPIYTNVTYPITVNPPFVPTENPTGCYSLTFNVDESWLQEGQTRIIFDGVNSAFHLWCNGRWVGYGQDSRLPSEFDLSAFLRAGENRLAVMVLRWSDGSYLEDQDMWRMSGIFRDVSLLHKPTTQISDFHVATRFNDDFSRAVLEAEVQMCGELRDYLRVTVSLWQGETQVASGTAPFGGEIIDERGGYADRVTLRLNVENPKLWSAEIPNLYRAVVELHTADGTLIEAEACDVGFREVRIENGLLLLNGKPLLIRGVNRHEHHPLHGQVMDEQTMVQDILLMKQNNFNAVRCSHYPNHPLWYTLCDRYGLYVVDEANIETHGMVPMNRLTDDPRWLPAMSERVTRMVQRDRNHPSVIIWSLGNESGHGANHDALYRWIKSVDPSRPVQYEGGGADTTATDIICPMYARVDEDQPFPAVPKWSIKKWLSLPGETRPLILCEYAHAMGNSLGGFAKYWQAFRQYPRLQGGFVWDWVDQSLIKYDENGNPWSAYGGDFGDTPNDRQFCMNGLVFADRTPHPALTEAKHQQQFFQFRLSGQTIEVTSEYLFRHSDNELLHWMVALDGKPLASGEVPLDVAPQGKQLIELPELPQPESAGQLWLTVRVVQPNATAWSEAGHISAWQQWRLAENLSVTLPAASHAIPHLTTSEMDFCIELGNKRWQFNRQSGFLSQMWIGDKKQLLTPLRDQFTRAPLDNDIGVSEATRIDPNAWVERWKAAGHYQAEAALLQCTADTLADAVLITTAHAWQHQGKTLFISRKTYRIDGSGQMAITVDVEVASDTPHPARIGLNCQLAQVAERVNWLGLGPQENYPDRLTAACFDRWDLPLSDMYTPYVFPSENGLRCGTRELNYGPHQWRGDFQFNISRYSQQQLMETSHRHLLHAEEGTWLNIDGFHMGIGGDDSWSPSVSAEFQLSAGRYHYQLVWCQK

[12] = inhibitors of HIV Env-driven cell fusion, dose response, cherry-pick (AID 652057); format: functional, cell-based
[13] = target: T6, Dual specificity protein phosphatase 3 (Homo sapiens, UniProt P51452); assay: Dose Response Confirmation of compounds that inhibit VHR1 in Fluorescent Assay. [Related pubchem assays (depositor defined):AID1661, AID1878]; format: functional
T6 sequence (P51452 whole entry): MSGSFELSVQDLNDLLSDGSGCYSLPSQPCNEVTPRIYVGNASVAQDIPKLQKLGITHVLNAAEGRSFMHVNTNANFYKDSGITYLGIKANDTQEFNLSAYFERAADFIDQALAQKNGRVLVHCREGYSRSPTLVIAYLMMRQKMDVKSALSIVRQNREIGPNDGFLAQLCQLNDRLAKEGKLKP

[14] = target: Eukaryotic translation initiation factor 4H (Homo sapiens, UniProt Q15056); assay: human eIF4H binding inhibitors, primary screen, translation initiation inhibitor project, biochemical, uHTS, fluorescence polarization (AID 2012)
[15] = target: T7, Heat shock 70 kDa protein 1A (Homo sapiens, UniProt P0DMV8); assay: Hsp70 inhibitors, probe displacement, primary screen, biochemical, fluorescence polarization (AID 583)
T7 sequence (P0DMV8 whole entry): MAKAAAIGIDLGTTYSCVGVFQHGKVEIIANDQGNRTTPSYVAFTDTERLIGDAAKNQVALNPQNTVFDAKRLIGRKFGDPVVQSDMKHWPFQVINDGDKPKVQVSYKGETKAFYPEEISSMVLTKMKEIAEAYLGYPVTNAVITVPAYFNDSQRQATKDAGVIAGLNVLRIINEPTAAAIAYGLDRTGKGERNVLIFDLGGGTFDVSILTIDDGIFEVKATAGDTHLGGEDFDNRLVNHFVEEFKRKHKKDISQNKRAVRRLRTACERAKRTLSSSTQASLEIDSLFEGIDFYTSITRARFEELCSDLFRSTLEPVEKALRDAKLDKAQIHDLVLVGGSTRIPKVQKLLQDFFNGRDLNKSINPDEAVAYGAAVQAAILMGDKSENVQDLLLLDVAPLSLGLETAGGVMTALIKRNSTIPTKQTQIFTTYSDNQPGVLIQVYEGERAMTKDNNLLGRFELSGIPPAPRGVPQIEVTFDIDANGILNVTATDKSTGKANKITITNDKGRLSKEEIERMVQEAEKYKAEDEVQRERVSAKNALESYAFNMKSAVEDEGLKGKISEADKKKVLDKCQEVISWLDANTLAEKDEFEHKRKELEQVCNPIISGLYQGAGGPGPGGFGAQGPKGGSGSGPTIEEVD

[16] = target: T8, fMet-Leu-Phe receptor (Homo sapiens, UniProt P21462); assay: FPR ligands, dose response (AID 519); format: functional
T8 sequence (P21462 whole entry): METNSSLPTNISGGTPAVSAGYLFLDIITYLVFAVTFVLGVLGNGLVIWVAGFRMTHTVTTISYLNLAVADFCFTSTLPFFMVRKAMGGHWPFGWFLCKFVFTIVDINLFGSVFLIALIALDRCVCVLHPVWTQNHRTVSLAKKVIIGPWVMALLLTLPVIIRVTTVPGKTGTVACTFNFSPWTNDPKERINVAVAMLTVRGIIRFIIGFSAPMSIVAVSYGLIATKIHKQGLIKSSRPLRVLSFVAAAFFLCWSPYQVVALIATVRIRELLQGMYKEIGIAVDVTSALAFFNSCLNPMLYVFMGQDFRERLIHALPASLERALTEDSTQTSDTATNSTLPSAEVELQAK

[17] = target: T9, Insulin-degrading enzyme (Homo sapiens, UniProt P14735); assay: Dose Response: Fluorescence polarization-based cell-based high throughput dose response assay for inhibitors of insulin-degrading enzyme (IDE). [Related pubchem assays: 434962 (Primary screen (IDE inhibitors in singlicate)), 449730 (Counterscreen (Cytotoxicity in triplicate)), 435028 (Confirmation (IDE inhibitors in triplicate)), 434984 (Summary …; format: functional
T9 sequence (P14735 whole entry): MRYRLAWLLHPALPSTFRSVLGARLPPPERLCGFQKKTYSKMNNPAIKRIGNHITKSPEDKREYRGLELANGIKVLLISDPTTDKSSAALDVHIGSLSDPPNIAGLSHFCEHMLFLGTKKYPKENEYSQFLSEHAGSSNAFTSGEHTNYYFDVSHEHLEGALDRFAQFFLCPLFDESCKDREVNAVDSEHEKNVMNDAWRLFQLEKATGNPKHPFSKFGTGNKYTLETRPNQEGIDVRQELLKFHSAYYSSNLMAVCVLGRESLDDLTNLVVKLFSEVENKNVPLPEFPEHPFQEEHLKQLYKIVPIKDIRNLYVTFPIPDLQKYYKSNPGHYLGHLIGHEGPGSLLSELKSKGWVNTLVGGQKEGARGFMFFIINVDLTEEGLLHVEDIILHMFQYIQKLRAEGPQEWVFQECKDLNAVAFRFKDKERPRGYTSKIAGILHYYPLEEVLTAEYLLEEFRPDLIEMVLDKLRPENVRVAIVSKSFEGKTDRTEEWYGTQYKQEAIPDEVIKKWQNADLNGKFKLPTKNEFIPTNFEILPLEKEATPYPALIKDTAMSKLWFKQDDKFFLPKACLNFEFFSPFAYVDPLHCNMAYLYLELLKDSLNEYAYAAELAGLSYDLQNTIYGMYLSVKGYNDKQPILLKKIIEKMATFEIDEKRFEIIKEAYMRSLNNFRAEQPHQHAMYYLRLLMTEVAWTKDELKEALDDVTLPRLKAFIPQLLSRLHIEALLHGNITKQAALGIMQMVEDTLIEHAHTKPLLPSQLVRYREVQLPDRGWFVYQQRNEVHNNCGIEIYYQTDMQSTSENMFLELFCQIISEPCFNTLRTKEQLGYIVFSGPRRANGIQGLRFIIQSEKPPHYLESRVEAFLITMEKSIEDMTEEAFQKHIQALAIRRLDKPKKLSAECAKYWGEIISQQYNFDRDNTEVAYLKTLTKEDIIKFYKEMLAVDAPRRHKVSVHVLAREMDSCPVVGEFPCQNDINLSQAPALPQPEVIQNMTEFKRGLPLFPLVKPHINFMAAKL

[18] = target: T7, Heat shock 70 kDa protein 1A; assay: Hsp70 inhibitors, biochemical, TR-FRET (AID 786)
[19] = target: T6, Dual specificity protein phosphatase 3; assay: SAR VHR1 Fluorescent Assay for In Vitro dose response studies Set 3. [Related pubchem assays (depositor defined):AID1654, AID1661, AID1878]; format: functional
[20] = Counterscreen for IDE inhibitors: Luminescence-based cell-based high throughput dose response assay to identify compounds that are cytotoxic to HEK cells. [Related pubchem assays: 434962 (Primary screen (IDE inhibitors in singlicate)), 449730 (Counterscreen (Cytotoxicity in triplicate)), 435028 (Confirmation (IDE inhibitors in triplicate)) …; format: functional; conditions: HEK293
[21] = CEM21 lymphoblast cell cytotoxicity, dose response, cytotoxicity control for viral fusion inhibitor project, CellTiter-Glo luminescence, cherry-picked (AID 652042); format: functional, cell-based;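 further: potency for signal decrease meaning cytotoxicity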
[22] = target: Polyadenylate-binding protein 1 (Homo sapiens, UniProt P11940); assay: PABP poly(A) RNA binding inhibitors, primary screen, biochemical, fluorescence polarization, uHTS (AID 2014)
Polyadenylate-binding protein 1, sequence (P11940 whole entry): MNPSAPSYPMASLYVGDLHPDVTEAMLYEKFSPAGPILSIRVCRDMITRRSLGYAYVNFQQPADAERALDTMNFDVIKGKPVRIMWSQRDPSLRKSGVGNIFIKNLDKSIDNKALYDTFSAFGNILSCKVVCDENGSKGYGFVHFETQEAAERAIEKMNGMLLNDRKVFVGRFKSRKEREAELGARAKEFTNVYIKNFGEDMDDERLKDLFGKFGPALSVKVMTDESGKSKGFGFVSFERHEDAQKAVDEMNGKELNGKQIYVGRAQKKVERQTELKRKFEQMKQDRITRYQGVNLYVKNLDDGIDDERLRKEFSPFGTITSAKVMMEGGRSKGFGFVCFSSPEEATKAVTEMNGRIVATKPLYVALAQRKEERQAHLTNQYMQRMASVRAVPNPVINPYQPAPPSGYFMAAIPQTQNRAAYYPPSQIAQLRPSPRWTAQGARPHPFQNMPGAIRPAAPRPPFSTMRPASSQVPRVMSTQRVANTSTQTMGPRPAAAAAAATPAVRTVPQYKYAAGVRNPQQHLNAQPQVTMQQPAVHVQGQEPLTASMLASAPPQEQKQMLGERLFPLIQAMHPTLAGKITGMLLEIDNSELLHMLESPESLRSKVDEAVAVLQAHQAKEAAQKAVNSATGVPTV

[23] = target: T10, Tyrosine-protein phosphatase non-receptor type 7 (Homo sapiens, UniProt P35236); assay: Dose Response confirmation of compounds that inhibit HePTP. [Related pubchem assays (depositor defined):AID1059, AID1661, AID2085]; format: functional
T10 sequence (P35236 whole entry): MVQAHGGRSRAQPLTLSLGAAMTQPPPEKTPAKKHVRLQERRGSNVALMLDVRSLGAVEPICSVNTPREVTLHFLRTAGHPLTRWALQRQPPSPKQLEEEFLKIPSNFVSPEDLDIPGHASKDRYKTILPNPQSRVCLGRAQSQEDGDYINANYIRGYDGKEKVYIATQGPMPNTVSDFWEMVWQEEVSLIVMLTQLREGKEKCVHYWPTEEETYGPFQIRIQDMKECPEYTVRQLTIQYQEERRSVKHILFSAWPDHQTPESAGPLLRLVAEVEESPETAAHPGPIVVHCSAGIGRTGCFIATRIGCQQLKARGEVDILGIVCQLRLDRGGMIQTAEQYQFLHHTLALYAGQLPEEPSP

[24] = target: Protein-tyrosine kinase 2-beta (Homo sapiens, UniProt Q14289);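 further: potency of inhibitors of PYK2 kinase phosphorylation of poly-GT substrate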
Protein-tyrosine kinase 2-beta, sequence (Q14289 whole entry, the tested form may be a part): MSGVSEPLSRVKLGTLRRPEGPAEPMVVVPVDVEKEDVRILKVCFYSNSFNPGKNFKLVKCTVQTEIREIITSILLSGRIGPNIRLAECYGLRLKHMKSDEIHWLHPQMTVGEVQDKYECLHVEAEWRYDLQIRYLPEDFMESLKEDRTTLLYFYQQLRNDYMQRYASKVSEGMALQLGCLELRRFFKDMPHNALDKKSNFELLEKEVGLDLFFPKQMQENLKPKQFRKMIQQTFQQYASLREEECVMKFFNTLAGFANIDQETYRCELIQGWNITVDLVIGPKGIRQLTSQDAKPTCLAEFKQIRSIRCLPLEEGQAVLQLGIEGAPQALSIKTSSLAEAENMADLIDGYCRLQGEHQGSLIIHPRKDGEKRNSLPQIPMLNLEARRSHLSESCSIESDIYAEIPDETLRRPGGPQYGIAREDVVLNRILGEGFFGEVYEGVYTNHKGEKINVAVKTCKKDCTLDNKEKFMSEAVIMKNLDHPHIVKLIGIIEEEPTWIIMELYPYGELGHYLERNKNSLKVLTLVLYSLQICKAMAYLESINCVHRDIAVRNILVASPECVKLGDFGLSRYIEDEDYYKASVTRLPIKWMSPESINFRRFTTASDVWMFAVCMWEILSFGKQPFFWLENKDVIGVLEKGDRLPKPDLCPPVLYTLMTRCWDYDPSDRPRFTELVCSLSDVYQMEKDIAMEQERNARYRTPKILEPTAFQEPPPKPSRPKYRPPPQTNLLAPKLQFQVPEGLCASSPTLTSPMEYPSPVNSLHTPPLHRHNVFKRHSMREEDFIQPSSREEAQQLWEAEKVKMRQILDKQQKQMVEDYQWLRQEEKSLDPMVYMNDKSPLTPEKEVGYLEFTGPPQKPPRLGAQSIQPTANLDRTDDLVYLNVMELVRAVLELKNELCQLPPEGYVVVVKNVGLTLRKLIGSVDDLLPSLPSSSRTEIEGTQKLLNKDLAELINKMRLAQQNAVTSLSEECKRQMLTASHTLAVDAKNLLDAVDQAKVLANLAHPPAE

[25] = target: T2, Hexokinase-1; assay: SAR analysis of small molecule inhibitors of hexokinase domain containing I (HKDC1) in the hexokinase 1 selectivity assay. [Related pubchem assays (depositor defined):AID493160, AID493190]; format: functional
[26] = target: T1, Hexokinase HKDC1; assay: SAR analysis of small molecule inhibitors of hexokinase domain containing I (HKDC1). [Related pubchem assays (depositor defined):AID493160, AID493190]; format: functional
[27] = cells
[28] = target: Major prion protein (Homo sapiens, UniProt P04156); format: functional, cell-based
[29] = system: Escherichia coli; assay: microbe, parasite or virus in culture

Structure (SMILES): Cc1ccccc1NC1c2ccccc2C(=O)N1c1ccccc1C (centres undefined)
- IC50 [1]: > 80 µM (inactive)
- IC50 [2]: > 80 µM (inactive)

Structure (SMILES): O=C(NCCN1CCC2(CC1)C(=O)NCN2c1ccc(F)c(F)c1)c1ccc2ccccc2c1
- IC50 [3]: 20 µM (active)
- IC50 [4]: 0.098 µM (active)

Structure (SMILES): CCC[C@@H](CN1CCC[C@H]1CN1C(N)=NC[C@H]1CC(C)C)N1C[C@@H](Cc2ccccc2)N(CCc2ccc(Cl)c(Cl)c2)C1=N
- IC50 [5]: > 20 µM (inactive)
- IC50 [6]: > 64.6 µM (inactive)
- IC50 [7]: 12.5 µM (active)
- IC50 [8]: 7.65 µM (active)
- IC50 [9]: > 40 µM (not active)
- AC50 [10]: 14.7 µM (active)
- EC50 [11]: > 40 µM (inactive)

Structure (SMILES): COc1ccc(-c2nnc(Nc3nc4c(OC)cccc4s3)o2)cc1
- AC50 [12]: 5.28 µM (active)
- IC50 [13]: 1.78 µM (active)
- IC50 [14]: 12.5 µM (active)
- IC50 [15]: > 100 µM (not active)
- Ki [16]: > 66.7 µM (inactive)
- IC50 [17]: > 55.9 µM (not active)
- IC50 [18]: > 100 µM (not active)
- IC50 [19]: 3.61 µM (active)
- IC50 [20]: 17.1 µM (not active)
- AC50 [21]: 52.2 µM (active)
- IC50 [22]: > 100 µM (inactive)
- IC50 [23]: 6.08 µM (active)
- IC50 [24]: 9.06 µM (active)

Structure (SMILES): O=C(CSc1ncnc2ccccc12)Nc1cccc(S(=O)(=O)N2CCOCC2)c1
- IC50 [25]: > 80 µM (inactive)
- IC50 [26]: > 80 µM (inactive)
- IC50 [27]: > 138 µM (inactive)
- IC50 [28]: 9.12 µM (active)

Structure (SMILES): CCCC(C(=O)NNC(=O)c1cc(C)oc1C)c1ccccc1 (centres undefined)
- AC50 [29]: 31.7 µM (active)
